Measured values published in patent publication US8338565B2, “Macrocyclic compounds for inhibition of tumor necrosis factor alpha” (Ensemble Therapeutics Corporation, priority 2008, dated 2012).
“And” between values parts separate entries of the source, which are not always exact repeats. Equal values may be shown once. Read-outs that look alike come from different tables or passages of the source. Numbered stars: 1 amine (or outer) side, 2 acyl side, 3 side chain; on linkers, the order of the positions; unused ones are H or OH. Bridge positions count the residues as written; N and C are the ends. Square brackets hold non-standard residues; d marks the D form. Peptide text beside a SMILES is read from it. Tartaroyl(2R,3R-(OAc)2) = CC(=O)O[C@@H](C(=O)[*:1])[C@@H](OC(C)=O)C(=O)[*:2]; Phe(3-CF3) = N[C@@H](Cc1cccc(C(F)(F)F)c1)C(=O)O; Phe(4-CF3) = N[C@@H](Cc1ccc(C(F)(F)F)cc1)C(=O)O; Phe(4-COOH) = N[C@@H](Cc1ccc(C(=O)O)cc1)C(=O)O; Bip = N[C@@H](Cc1ccc(-c2ccccc2)cc1)C(=O)O; dBip = N[C@H](Cc1ccc(-c2ccccc2)cc1)C(=O)O; dPhe(4-NH2) = Nc1ccc(C[C@@H](N)C(=O)O)cc1; dPhe(3-Cl) = N[C@H](Cc1cccc(Cl)c1)C(=O)O; Phe(4-NH2) = Nc1ccc(C[C@H](N)C(=O)O)cc1; d(hPhe) = N[C@H](CCc1ccccc1)C(=O)O; dNMeF = CN[C@H](Cc1ccccc1)C(=O)O; hPhe = N[C@@H](CCc1ccccc1)C(=O)O; 2Thi = N[C@@H](Cc1cccs1)C(=O)O; d2Thi = N[C@H](Cc1cccs1)C(=O)O; Suc = O=C(CCC(=O)[*:2])[*:1]; GABA = NCCCC(=O)O

Biological target: T1, TNFα / TNFα receptor (TNFα R1/Fc) (Homo sapiens, UniProt P01375)
T1 construct: purchased R&D Systems
T1 sequence (P01375 77-233 limits assumed, species assumed): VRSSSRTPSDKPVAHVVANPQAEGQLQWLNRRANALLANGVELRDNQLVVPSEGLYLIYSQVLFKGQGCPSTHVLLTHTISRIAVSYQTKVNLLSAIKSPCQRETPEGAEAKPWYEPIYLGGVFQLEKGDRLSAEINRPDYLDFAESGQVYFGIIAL
Assay: Inhibition of binding of TNFα to the TNFα receptor (plate ELISA competition)
Conditions: Table 2
How it was run: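 Compound dilutions were preincubated 30 min at RT with 8.33 nM TNFα R1/Fc in PBST with 2% DMSO, then added to wells coated with 15 nM TNFα for 30 min. Bound receptor was detected with HRP anti-human Fc and TMB, read as A450.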

[1] = read-out: Activity (IC50, inhibition of TNFα binding to TNFα R1/Fc)

| Compound | IC50 [1] | IC50 (Activity (IC50, inhibition of TNFα binding to TNFα R1/Fc)) [µM] |
| --- | --- | --- |
| COc1cccc(C[C@H]2NC(=O)[C@H](Cc3cccs3)NC(=O)COc3ccc(cc3)C[C@@H](C(=O)O)NC(=O)[C@H](Cc3ccccc3)NC2=O)c1 [Compound 407] | > 100 µM |  |
| O=C1COc2ccc(cc2)C[C@@H](C(=O)N[C@@H](CO)C(=O)O)NC(=O)[C@H](CCc2ccccc2)NC(=O)[C@@H](Cc2ccc(-c3ccccc3)cc2)NC(=O)[C@H](Cc2cccs2)N1 [Compound 486] |  | < 10 |
| O=C1COc2ccc(cc2)C[C@@H](C(=O)O)NC(=O)[C@H](Cc2ccc(-c3ccccn3)cc2)NC(=O)[C@@H](Cc2ccc(-c3ccccc3)cc2)NC(=O)[C@H](Cc2cccs2)N1 [Compound 632] | < 10 µM |  |
| COc1cccc(-c2ccc(C[C@@H]3NC(=O)[C@@H](CCc4ccccc4)NC(=O)CCC(=O)Nc4ccc(cc4)C[C@@H](C(=O)O)NC(=O)[C@@H](Cc4ccccc4)NC3=O)cc2)c1 [Compound 110] | 10 to 30 µM |  |
| CN(CCS(=O)(=O)O)C(=O)[C@@H]1Cc2ccc(cc2)OCC(=O)N[C@@H](Cc2cccs2)C(=O)N[C@H](Cc2ccc(-c3ccccc3)cc2)C(=O)N[C@@H](CCc2ccccc2)C(=O)N1 [Compound 605] | < 10 µM |  |
| O=C1CCC(=O)N[C@H](Cc2cccs2)C(=O)N[C@@H](Cc2ccc(-c3ccccc3)cc2)C(=O)N[C@@H](Cc2ccccc2)C(=O)N[C@@H](C(=O)O)Cc2ccc(cc2)N1 [Compound 497] ([d2Thi][Bip]F[dPhe(4-NH2)]-OH; linker N-4 via Suc) | > 100 µM |  |
| O=C1CCC(=O)N[C@H](Cc2cccc(Cl)c2)C(=O)N[C@@H](Cc2ccc(C(F)(F)F)cc2)C(=O)N[C@H](Cc2ccccc2)C(=O)N[C@H](C(=O)O)Cc2ccc(cc2)N1 [Compound 133] ([dPhe(3-Cl)][Phe(4-CF3)][dF][Phe(4-NH2)]-OH; linker N-4 via Suc) | 30 to 100 µM |  |
| O=C(O)CCCNC(=O)[C@@H]1Cc2ccc(cc2)C(=O)N[C@H](CCc2ccccc2)C(=O)N[C@@H](Cc2ccc(-c3ccccc3)cc2)C(=O)N[C@H](Cc2ccccc2)C(=O)N1 [Compound 425] ([d(hPhe)][Bip][dF][Phe(4-COOH)][GABA]-OH; lactam N-4) | 30 to 100 µM |  |
| O=C1COc2ccc(cc2)C[C@@H](C(=O)N[C@@H](Cc2ccc(O)cc2)C(=O)O)NC(=O)[C@H](CCc2ccccc2)NC(=O)[C@@H](Cc2ccc(-c3ccccc3)cc2)NC(=O)[C@H](Cc2ccc(-c3ccccc3)cc2)N1 [Compound 567] | < 10 µM |  |
| O=C(O)[C@@H]1Cc2ccc(cc2)NC(=O)[C@H](O)[C@@H](O)C(=O)N[C@H](Cc2cccs2)C(=O)N[C@@H](Cc2ccc(-c3ccccc3)cc2)C(=O)N[C@H](Cc2ccc(F)cc2)C(=O)N1 [Compound 288] | > 100 µM |  |
| O=C(O)C[C@H](Cc1ccccc1)NC(=O)[C@@H]1Cc2ccc(cc2)OCC(=O)N[C@@H](Cc2cccs2)C(=O)N[C@H](Cc2ccc(-c3ccccc3)cc2)C(=O)N[C@@H](CCc2ccccc2)C(=O)N1 [Compound 485] | 10 to 30 µM |  |
| CC(=O)O[C@H]1C(=O)Nc2ccc(cc2)C[C@H](C(=O)N[C@@H](Cc2ccccc2)C(=O)O)NC(=O)[C@H](CCc2ccccc2)NC(=O)[C@@H](Cc2ccc(-c3ccccc3)cc2)NC(=O)[C@H](Cc2cccs2)NC(=O)[C@@H]1OC(C)=O [Compound 411] ([2Thi][dBip][hPhe][dPhe(4-NH2)]F-OH; linker N-4 via Tartaroyl(2R,3R-(OAc)2)) | > 100 µM |  |
| O=C1CCC(=O)N[C@H](Cc2cccs2)C(=O)N[C@@H](Cc2cccc(C(F)(F)F)c2)C(=O)N[C@H](Cc2ccccc2)C(=O)N[C@H](C(=O)O)Cc2ccc(cc2)N1 [Compound 208] ([d2Thi][Phe(3-CF3)][dF][Phe(4-NH2)]-OH; linker N-4 via Suc) | > 100 µM |  |
| CN1C(=O)[C@H](Cc2ccc(-c3ccccc3)cc2)NC(=O)[C@@H](Cc2cccs2)NC(=O)CCC(=O)Nc2ccc(cc2)C[C@@H](C(=O)O)NC(=O)[C@H]1Cc1ccccc1 [Compound 57] ([d2Thi][Bip][dNMeF][Phe(4-NH2)]-OH; linker N-4 via Suc) | > 100 µM |  |
| O=C(O)CCCNC(=O)[C@H]1Cc2ccc(cc2)OCC(=O)N[C@@H](Cc2ccncc2)C(=O)N[C@H](Cc2ccc(-c3ccccc3)cc2)C(=O)N[C@@H](CCc2ccccc2)C(=O)N1 [compound 715] | 10 to 30 µM and > 100 µM |  |
